PubChem BioAssay (NCI)
Values joined by “and” are separate entries in the source; they are usually repeats but may differ in a detail not shown here. Equal values may be shown once.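 Tested at 5 concentrations; 48 h exposure; 96-well plates; endpoints linearly interpolated, else capped at highest concentration. The concentration for 50% growth inhibition is given as GI50. TGI denotes the concentration required for complete inhibition of growth.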

Tests used:
Experiment in all cases: NCI-60 cell line screen, 48 h
HOP-62 NSCLC = tested on: HOP-62 NSCLC
786-0 renal = tested on: 786-0 renal
SK-OV-3 ovarian = tested on: SK-OV-3 ovarian
A498 renal = tested on: A498 renal
HOP-92 NSCLC = tested on: HOP-92 NSCLC
CCRF-CEM leukemia = tested on: CCRF-CEM leukemia
SW-620 colon = tested on: SW-620 colon
NCI-H460 lung = tested on: NCI-H460 lung
T-47D breast = tested on: T-47D breast
MDA-MB-231 breast = tested on: MDA-MB-231 breast

Structure (SMILES) | GI50 (HOP-62 NSCLC) [µM] | TGI (HOP-62 NSCLC) | GI50 (786-0 renal) [µM] | TGI (786-0 renal) | GI50 (SK-OV-3 ovarian) [µM] | TGI (SK-OV-3 ovarian) | GI50 (A498 renal) [µM] | TGI (A498 renal) [µM] | GI50 (HOP-92 NSCLC) | TGI (HOP-92 NSCLC) | GI50 (CCRF-CEM leukemia) [µM] | TGI (CCRF-CEM leukemia) [µM] | GI50 (SW-620 colon) [µM] | TGI (SW-620 colon) | GI50 (NCI-H460 lung) [µM] | TGI (NCI-H460 lung) | GI50 (T-47D breast) [µM] | TGI (T-47D breast) [µM] | TGI (MDA-MB-231 breast) [µM] | GI50 (MDA-MB-231 breast) [µM]
CC[C@@]1(O)C(=O)OCc2c1cc1n(c2=O)Cc2cc3c([N+](=O)[O-])c(O)ccc3nc2-1 | 0.026 | 0.0964 µM | 0.0477 | 0.432 µM | 0.614 | 25 µM | 0.915 | 5.66 | 1.26 µM | 6.56 µM | < 0.026 | 0.469 | 0.416 | 33.8 µM | 0.053 | 1.14 µM | – | – | – | –
CN1C(=O)C(C)(C)NS1(=O)=O | – | > 100 µM | – | > 100 µM | – | > 100 µM | – | > 100 | – | – | – | > 100 | – | > 100 µM | – | > 100 µM | – | – | – | –
CN(Cc1ccccc1)c1ncnc2ccc(Br)cc12 | 12.6 | 25.9 µM | 13.5 | 26.3 µM | 14.2 | 30.3 µM | 4.8 | 17.1 | 7.16 µM | 25.8 µM | 13.6 | 38.7 | – | – | 10.3 | 26 µM | 22 | > 100 | – | –
CC1=CC[C@@H]2[C@@H](CC[C@@]2(C)O)C(C)(C)[C@H]1CC[C@@H]1[C@@]2(C)CC[C@@H](O)C(C)(C)O[C@@H]2CC[C@]1(C)O | – | 75.4 µM | – | 34.8 µM | – | > 100 µM | – | 29.3 | – | 37.1 µM | – | – | – | 85.7 µM | – | 34.8 µM | – | > 100 | 34.5 | –
COC(=O)CCC(=O)Nc1cccc(C(F)(F)F)c1 | – | > 100 µM | – | > 100 µM | – | > 100 µM | – | > 100 | – | > 100 µM | – | > 100 | – | > 100 µM | – | > 100 µM | – | – | – | –
CN(C(=N)c1ccccc1)c1ccccc1 | – | – | – | > 100 µM | – | > 100 µM | – | – | – | > 100 µM | – | > 100 | – | > 100 µM | – | – | – | – | – | –
CC(=O)O[C@H]1CC[C@@]2(C)C(=CC[C@@H]3C2CC[C@]2(C)C(=O)NC(=O)CC32)C1 (some centres not stated) | – | > 100 µM | – | > 100 µM | – | > 100 µM | – | > 100 | – | > 100 µM | – | > 100 | – | > 100 µM | – | > 100 µM | – | – | – | –
Nc1nc2ccccc2c2[nH]c3ccccc3c12 | 1.13 | 2.44 µM | 1.12 | 2.61 µM | 4.91 | 18.9 µM | 1.16 | 2.42 | – | – | – | – | 0.384 | 1.96 µM | – | – | 1.21 | 2.91 | 2.57 | 1.22
Cc1c(C)n(CC(O)CNC2CCCCC2C)c2ccccc12 (configuration not stated) | 16.6 | 32 µM | 12.5 | 25.6 µM | 18.2 | 32.9 µM | 4.99 | 19.6 | 4.76 µM | 17.8 µM | – | – | 17.9 | 35 µM | 15.7 | 31 µM | 12.8 | 29.8 | 20.5 | 6.44
C=C(c1ccccc1)[C@@]1(O)CCCC[C@H]1NC(c1ccccc1)c1ccccc1 | – | 31 µM | – | 25.5 µM | – | 44.2 µM | – | 27.7 | – | 26.1 µM | – | 18.7 | – | 32.8 µM | – | 28 µM | – | – | – | –
C/C(=N\NC(=O)C[n+]1ccccc1)c1sc(-c2nc(C)c(/C(C)=N/NC(=O)C[n+]3ccccc3)s2)nc1C | – | > 100 µM | – | > 100 µM | – | > 100 µM | – | > 100 | – | > 100 µM | – | – | – | > 100 µM | – | > 100 µM | – | – | – | –
O=C1/C(=N/N=C(c2ccccc2)c2ccccc2)c2ccccc2-c2ccccc21 | – | > 100 µM | – | > 100 µM | – | > 100 µM | – | – | – | 87.8 µM | – | – | – | > 100 µM | – | > 100 µM | – | > 100 | > 100 | –
COc1ccc(C(=C(C#N)C#N)c2ccc(OC)cc2)cc1 | – | > 100 µM | – | > 100 µM | – | – | – | > 100 | – | – | – | > 100 | – | > 100 µM | – | > 100 µM | – | – | – | –
COc1ccc(/C=C(/C(=O)N2CCN(c3ccc(C)cc3)CC2)c2cc(OC)c(OC)c(OC)c2)cc1N | 0.474 | > 100 µM | 0.32 | > 100 µM | 0.755 | > 100 µM | 0.0571 | 2.3 | 0.205 µM | > 100 µM | 0.394 | > 100 | 0.407 | > 100 µM | 0.347 | > 44 µM | – | – | > 100 | 0.36
C=CC1CC12C(=O)C1OC2(C)C2C(=O)c3c(O)cccc3C(=O)C12 (configuration not stated) | > 100 | > 100 µM | 29.1 | > 100 µM | 94.5 | > 100 µM | – | – | 25.8 µM | > 100 µM | 26 | > 100 | – | – | 33.8 | > 100 µM | 31.2 | > 100 | 59 | 18.7
CC12CCC(=O)N1c1cc([N+](=O)[O-])ccc1N2 (configuration not stated) | – | > 100 µM | – | > 100 µM | – | > 100 µM | – | > 100 | – | – | – | > 100 | – | > 100 µM | – | – | – | – | – | –
CC1OC(OC23C(=O)CC(C)(O)CC2(O)C=CC2=C3C(=O)c3ccc(C4CC(OC5CCC(OC6CC(O)C(O)C(C)O6)C(C)O5)C(O)C(C)O4)c(O)c3C2=O)CCC1O (configuration not stated) | – | 79.4 µM and 41.4 µM | – | 31.7 µM and 29.5 µM | – | 86.2 µM and 46 µM | – | – | 15.2 µM and 4.81 µM | 28.7 µM and 14.8 µM | – | > 100 | – | 15.7 µM and 10.9 µM | – | 38 µM and 34.3 µM | – | – | – | –
C=CCNC(=O)ON1C(=O)CCC1=O | – | > 100 µM | – | > 100 µM | – | > 100 µM | – | > 100 | – | > 100 µM | – | > 100 | – | > 100 µM | – | > 100 µM | – | – | – | –
CO[C@H](C(=O)O[C@H]1C(=O)N2CCC3CCC1C32C)c1ccccc1 (some centres not stated) | – | > 100 µM | – | > 100 µM | – | > 100 µM | – | – | – | – | – | > 100 | – | > 100 µM | – | > 100 µM | – | – | – | –
CCCCCCCCCCCCCCCCCc1cc(Cl)nc(Cl)n1 | – | > 100 µM | – | > 100 µM | – | > 100 µM | – | – | – | – | – | > 100 | – | > 100 µM | – | > 100 µM | – | – | – | –
N#CC1=C(c2ccccc2)NN(Cc2ccccc2)C(c2ccc(Cl)cc2)CC1=O (configuration not stated) | – | – | – | 98.4 µM | – | – | – | > 100 | – | 45.1 µM | – | > 100 | – | 54.8 µM | – | 52.9 µM | – | – | – | –
O=C1C[C@@H]2[C@@H](C=CC23CC3)N1O | – | > 100 µM | – | > 100 µM | – | > 100 µM | – | > 100 | – | – | – | > 100 | – | > 100 µM | – | > 100 µM | – | – | – | –
CC(=O)CC(=O)ON(C)C(C)=O | – | > 100 µM | – | > 100 µM | – | > 100 µM | – | – | – | – | – | > 100 | – | > 100 µM | – | > 100 µM | – | – | – | –
